This assay concerns the target T1, Corticotropin-releasing factor receptor 1 (Homo sapiens, UniProt P34998).
T1 sequence (P34998 whole entry): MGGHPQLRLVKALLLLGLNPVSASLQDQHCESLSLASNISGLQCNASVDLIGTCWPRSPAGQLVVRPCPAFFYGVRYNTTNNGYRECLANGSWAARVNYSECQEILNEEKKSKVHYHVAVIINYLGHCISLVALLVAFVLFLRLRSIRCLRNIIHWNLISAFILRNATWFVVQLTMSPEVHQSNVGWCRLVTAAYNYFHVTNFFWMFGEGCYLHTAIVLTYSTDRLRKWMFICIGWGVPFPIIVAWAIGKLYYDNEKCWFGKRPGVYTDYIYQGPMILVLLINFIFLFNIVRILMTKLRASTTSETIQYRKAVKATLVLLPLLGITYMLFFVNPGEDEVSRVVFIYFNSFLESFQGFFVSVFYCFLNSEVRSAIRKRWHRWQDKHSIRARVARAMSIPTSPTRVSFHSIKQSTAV
Briefly: Displacement of [125I]-Tyr0-sauvagine from human CRFR1 expressed in HEK293 cell membrane homogenates after 120 mins by gamma counting method. The class given is cell membranes.
On to `CCCCN(CC)c1nc(C)nc2c1sc(=N)n2-c1c(C)cc(C)cc1C`, for which the IC50 (as a rule, the concentration that gives 50% inhibition) was 0.17 µM. As for `CCN(CC)c1nc(C)nc2c1s/c(=N/N)n2-c1c(C)cc(C)cc1C`, the figure is 0.447 µM; as for `CCN(CC)c1nc(C)nc2c1sc(=N)n2-c1c(C)cc(C)cc1C`, 0.891 µM.

The values above are taken from ChEMBL document CHEMBL4130360, “Synthesis of 2-imino and 2-hydrazono thiazolo[4,5-d]pyrimidines as corticotropin releasing factor (CRF) antagonists” (Eur J Med Chem, 2017).
